Experimental data as given in patent publication US10160753B2, “Indazole compounds as IRAK4 inhibitors” (Aurigene Discovery Technologies Limited, priority 2014, dated 2018).
Structures can show the parent of a compound that is named as a salt.

molecular target: T1, recombinant IRAK-4 kinase (Homo sapiens, UniProt Q9NWZ3); test: IRAK-4 Biochemical Assay (TR-FRET); conditions: 30 min pre-incubation, 100 nM Biotin Histone H3, 20 μM ATP, read-out: IC50 values for IRAK4 activity
T1 construct: purchased Millipore, USA
T1 sequence (Q9NWZ3 1-460): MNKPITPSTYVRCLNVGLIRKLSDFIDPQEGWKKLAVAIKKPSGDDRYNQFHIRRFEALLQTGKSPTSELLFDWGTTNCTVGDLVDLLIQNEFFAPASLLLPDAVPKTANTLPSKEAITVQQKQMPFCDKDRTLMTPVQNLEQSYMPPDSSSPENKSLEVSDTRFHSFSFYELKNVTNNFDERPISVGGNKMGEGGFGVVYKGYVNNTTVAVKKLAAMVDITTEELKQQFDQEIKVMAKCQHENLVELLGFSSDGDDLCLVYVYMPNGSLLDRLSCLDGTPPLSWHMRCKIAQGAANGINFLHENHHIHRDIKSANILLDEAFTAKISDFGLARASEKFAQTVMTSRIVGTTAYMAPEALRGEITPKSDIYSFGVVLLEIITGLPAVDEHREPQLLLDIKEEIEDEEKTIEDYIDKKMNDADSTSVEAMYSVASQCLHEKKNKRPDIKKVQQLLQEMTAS
Protocol: Compounds were tested for their potential to inhibit IRAK-4 enzyme in a TR-FRET assay using recombinant IRAK-4 kinase from Millipore, USA. The assay buffer was 50 mM Tris-HCl pH 7.5, 20 mM MgCl2, 1 mM EGTA, 2 mM DTT, 3 mM MnCl2 and 0.01% Tween 20.5 ng of IRAK-4 kinase was used for the assay. After pre-incubation of enzyme with test compound for 30 minutes at room temperature, a substrate mixture containing 100 nM Biotin Histone H3 (Millipore, USA) and 20 μM ATP (Sigma, USA) was added and the reaction was incubated for 30 min. Post incubation, the reaction was stopped by the addition of stop mix containing 40 mM EDTA, 1 nM of Europium-Anti-Phospho-Histone H3 (Ser10) antibody (Perkin Elmer, USA) and 20 nM SureLight Allophycocyanin-Streptavidin (Perkin Elmer, USA). The fluorescence emission at 615 nm and 665 nm were measured at an excitation of 340 nm and the percent inhibition was estimated from the ratio of the fluorescence intensities [(F665/F615)×10000]. The compounds were initially screened at 1 μM and 10 μM concentrations and potent compounds (>50% inhibition at 1 μM) were taken for dose response studies. The IC50 values were estimated by fitting the dose-response data to sigmoidal dose response (variable slope), curve fitting program using Graphpad Prism software Version 6.01.

IC50 [nM]	Compound
< 50	Cc1cc(-c2nc(C(=O)Nc3cc4cn(C)nc4cc3N3CCCCC3)co2)cc(C)n1 [Example 119, 2-(2,6-dimethylpyridin-4-yl)-N-(2-methyl-6-(piperidin-1-yl)-2H-indazol-5-yl)oxazole-4-carboxamide hydrochloride]
< 50	CNc1cc(-c2nc(C(=O)Nc3cc4cn(C)nc4cc3N3CCCCC3)co2)ccn1 [Example 122, N-(2-methyl-6-(piperidin-1-yl)-2H-indazol-5-yl)-2-(2-(methylamino)pyridin-4-yl)oxazole-4-carboxamide hydrochloride]
< 50	Cn1ncc2cc(NC(=O)c3coc(-c4ccnc(O)c4)n3)c(N3CCC(O)CC3)cc21 [Example 113, N-(6-(4-hydroxypiperidin-1-yl)-1-methyl-1H-indazol-5-yl)-2-(2-hydroxypyridin-4-yl)oxazole-4-carboxamide]
< 50	CC(=O)Nc1cc(-c2nc(C(=O)Nc3cc4cn(C)nc4cc3N3CCC(CO)CC3)co2)ccn1 [Example 98, 2-(2-acetamidopyridin-4-yl)-N-(6-(4-(hydroxymethyl)piperidin-1-yl)-2-methyl-2H-indazol-5-yl)oxazole-4-carboxamide]
< 50	Cc1nn(C)c2cc(N3CCC(CO)CC3)c(NC(=O)c3coc(-c4ccnc(N)c4)n3)cc12 [Example 112, 2-(2-aminopyridin-4-yl)-N-(6-(4-(hydroxymethyl)piperidin-1-yl)-1,3-dimethyl-1H-indazol-5-yl)oxazole-4-carboxamide]
< 50	COc1cc(-c2nc(C(=O)Nc3cc4cn(C)nc4cc3N3CCC(O)CC3)co2)ccn1 [Example 107, N-(6-(4-hydroxypiperidin-1-yl)-2-methyl-2H-indazol-5-yl)-2-(2-methoxypyridin-4-yl)oxazole-4-carboxamide hydrochloride]
< 50	COc1cc(-c2nc(C(=O)Nc3cc4cn(C)nc4cc3N3CCCCC3)co2)ccn1 [Example 103, 2-(2-methoxypyridin-4-yl)-N-(2-methyl-6-(piperidin-1-yl)-2H-indazol-5-yl)oxazole-4-carboxamide]
< 50	Cn1cc2cc(NC(=O)c3coc(-c4ccnc(N)c4)n3)c(N3CCCC(O)C3)cc2n1 (stereo not drawn) [Example 102, 2-(2-aminopyridin-4-yl)-N-(6-(3-hydroxypiperidin-1-yl)-2-methyl-2H-indazol-5-yl)oxazole-4-carboxamide hydrochloride]
< 50	Cc1cc(-c2nc(C(=O)Nc3cc4cn(C)nc4cc3N3CCC(N)CC3)co2)ccn1 [Example 109, N-(6-(4-aminopiperidin-1-yl)-2-methyl-2H-indazol-5-yl)-2-(2-methylpyridin-4-yl)oxazole-4-carboxamide hydrochloride]
< 50	COc1cc(-c2nc(C(=O)Nc3cc4cn(C)nc4cc3N3CCC(CO)CC3)co2)ccn1 [Example 97, N-(6-(4-(hydroxymethyl)piperidin-1-yl)-2-methyl-2H-indazol-5-yl)-2-(2-methoxypyridin-4-yl)oxazole-4-carboxamide]
< 50	Cn1cc2cc(NC(=O)c3coc(-c4ccnc(N)c4)n3)c(N3CCC(F)CC3)cc2n1 [Example 90, 2-(2-aminopyridin-4-yl)-N-(6-(4-fluoropiperidin-1-yl)-2-methyl-2H-indazol-5-yl)oxazole-4-carboxamide hydrochloride]

More lines, now with the values behind:

Compound	IC50 [nM]
Cc1cc(-c2nc(C(=O)Nc3cc4cn(C)nc4cc3N3CCCC3)co2)ccn1 [Example 63, N-(2-methyl-6-(pyrrolidin-1-yl)-2H-indazol-5-yl)-2-(2-methylpyridin-4-yl)oxazole-4-carboxamide]	< 50
Cc1cc(-c2nc(C(=O)Nc3cc4cn(C)nc4cc3N3CC[C@@H](O)C3)co2)ccn1 [Example 65, (R)—N-(6-(3-hydroxypyrrolidin-1-yl)-2-methyl-2H-indazol-5-yl)-2-(2-methylpyridin-4-yl)oxazole-4-carboxamide]	< 50
Cn1cc(-c2cccc(C(=O)Nc3cc4cn(C)nc4cc3N3CCCCC3)n2)cn1 [Example 19, 6-(1-methyl-1H-pyrazol-4-yl)-N-(2-methyl-6-(piperidin-1-yl)-2H-indazol-5-yl)picolinamide]	< 50
Cn1cc2cc(NC(=O)c3cccc(N4CC[C@@H](O)C4)n3)c(N3CCCCC3)cc2n1 [Example 38, (R)-6-(3-hydroxypyrrolidin-1-yl)-N-(2-methyl-6-(piperidin-1-yl)-2H-indazol-5-yl)picolinamide]	< 50
Cn1cc2cc(NC(=O)c3cccc(-c4cccnc4F)n3)c(N3CCCCC3)cc2n1 [Example 14, 2′-fluoro-N-(2-methyl-6-(piperidin-1-yl)-2H-indazol-5-yl)-[2,3′-bipyridine]-6-carboxamide]	< 50
Cc1cc(-c2nc(C(=O)Nc3cc4c(C)nn(C)c4cc3N3CCC(F)CC3)co2)ccn1 [Example 87, N-(6-(4-fluoropiperidin-1-yl)-1,3-dimethyl-1H-indazol-5-yl)-2-(2-methylpyridin-4-yl)oxazole-4-carboxamide]	< 50
Cc1cc(-c2nc(C(=O)Nc3cc4cnn(C)c4cc3N3CCC3)co2)ccn1 [Example 59, N-(6-(azetidin-1-yl)-1-methyl-1H-indazol-5-yl)-2-(2-methylpyridin-4-yl)oxazole-4-carboxamide]	> 100
Cc1cc(-c2nc(C(=O)Nc3cc4cn(C)nc4cc3N3CCC3)co2)ccn1 [Example 60, N-(6-(azetidin-1-yl)-2-methyl-2H-indazol-5-yl)-2-(2-methylpyridin-4-yl)oxazole-4-carboxamide]	< 50
Cc1cc(-c2nc(C(=O)Nc3cc4cn(C)nc4cc3N3CC[C@H](O)C3)co2)ccn1 [Example 64, (S)—N-(6-(3-hydroxypyrrolidin-1-yl)-2-methyl-2H-indazol-5-yl)-2-(2-methylpyridin-4-yl)oxazole-4-carboxamide]	< 50
Cc1cc(-c2nc(C(=O)Nc3cc4cn(C5CCCC5)nc4cc3C#N)co2)ccn1 [Example 5, N-(6-cyano-2-cyclopentyl-2H-indazol-5-yl)-2-(2-methylpyridin-4-yl) oxazole-4-carboxamide]	< 50
Cc1cc(-c2nc(C(=O)Nc3cc4c(C)n(C)nc4cc3N3CCC(O)CC3)co2)ccn1 [Example 83, N-(6-(4-hydroxypiperidin-1-yl)-2,3-dimethyl-2H-indazol-5-yl)-2-(2-methylpyridin-4-yl)oxazole-4-carboxamide]	< 50
Cc1cc(-c2nc(C(=O)Nc3cc4cnn(C)c4cc3N3CCCC3)co2)ccn1 [Example 62, N-(1-methyl-6-(pyrrolidin-1-yl)-1H-indazol-5-yl)-2-(2-methylpyridin-4-yl)oxazole-4-carboxamide]	< 50
Cc1cc(-c2nc(C(=O)Nc3cc4c(C)nn(C)c4cc3N3CCCCC3)co2)ccn1 [Example 74, N-(1,3-dimethyl-6-(piperidin-1-yl)-1H-indazol-5-yl)-2-(2-methylpyridin-4-yl)oxazole-4-carboxamide]	< 50
CC(=O)Nc1cc(-c2nc(C(=O)Nc3cc4cn(C)nc4cc3N3CCCC(F)C3)co2)ccn1 (stereo not drawn) [Example 85, 2-(2-acetamidopyridin-4-yl)-N-(6-(3-fluoropiperidin-1-yl)-2-methyl-2H-indazol-5-yl)oxazole-4-carboxamide]	< 50
Cc1ccc(C(=O)Nc2cc3cn(C)nc3cc2N2CCCCC2)nc1-c1ccc(N)nc1 [Example 29, 6′-amino-3-methyl-N-(2-methyl-6-(piperidin-1-yl)-2H-indazol-5-yl)-[2,3′-bipyridine]-6-carboxamide hydrochloride]	< 50
Nc1ccc(-c2cccc(C(=O)Nc3cc4cn(C5CCCC5)nc4cc3N3CCOCC3)n2)cn1 [Example 9, 6′-amino-N-(2-cyclopentyl-6-morpholino-2H-indazol-5-yl)-[2,3′-bipyridine]-6-carboxamide 2,2,2-trifluoroacetate]	< 50
Cc1ccc(C(=O)Nc2cc3cn(C)nc3cc2N2CCCCC2)nc1-c1cnn(C)c1 [Example 30, 5-methyl-6-(1-methyl-1H-pyrazol-4-yl)-N-(2-methyl-6-(piperidin-1-yl)-2H-indazol-5-yl)picolinamide]	< 50
Cn1cc2cc(NC(=O)c3cccc(N4CC[C@H](N)C4)n3)c(C3CC3)cc2n1 [Example 48, (S)-6-(3-aminopyrrolidin-1-yl)-N-(6-cyclopropyl-2-methyl-2H-indazol-5-yl)picolinamide]	> 100
Cc1cc(-c2nc(C(=O)Nc3cc4cnn(C)c4cc3N3CCCCCC3)co2)ccn1 [Example 72, N-(6-(azepan-1-yl)-1-methyl-1H-indazol-5-yl)-2-(2-methylpyridin-4-yl)oxazole-4-carboxamide]	< 50
